# Where “and” joins values, the source holds several entries; their conditions need not be identical. Equal entries are not always repeated. Where two headings read alike, the source gives them in different places.
# How the values were obtained:
# Type in all cases: cell-based, Plasmodium falciparum
# PfCRT variant Y177A = assay: CQ uptake assay, oocytes expressing Y177A
# Procedure: (§1) Site-directed mutagenesis of PfCRT^Dd2 was performed as described using the megaprimer method with overlap extension[21],[54]. The primer pairs used are listed in Supplementary Table 6. Please note that a codon-optimized and oocyte-adapted version of PfCRT^Dd2 was used[22] (Supplementary Fig. 16). The resulting DNA fragment was cloned into the SP64T expression vector and verified by sequencing.
# (§2) Oocytes were obtained as described previously. Briefly, adult (>2 years old) female X. laevis frogs (NASCO) were anesthetized in a cooled solution of ethyl 3-amino benzoate methanesulfonate (0.1%, w/v), followed by a surgical removal of parts of the ovary. The ovary lobes were carefully dissected and small pieces of oocytes were incubated in Ca^2+-free ND96 buffer (96 mM NaCl, 2 mM KCl, 1 mM MgCl2 buffered with 5 mM HEPES/NaOH, pH 7.5) supplemented with collagenase D (0.1%, w/v; Roche), BSA (0.5%, w/v), and 9 mm Na2HPO4 at 18 °C for 14-16 h while gentle shaking. After incubation, the oocytes were carefully washed several times with ND96 buffer (96 mM NaCl, 2 mM KCl, 1.8 mM CaCl2, 1 mM MgCl2 buffered with 5 mM HEPES/NaOH, pH 7.5) supplemented with 100 mg l^−1 gentamycin). Defolliculated and healthy-looking stage V-VI oocytes were manually selected for RNA microinjection. The RNA was generated as following: The codon-optimized sequences of PfCRT variants were cloned into the pSP64T expression vector. After vector linearization using the restriction endonucleases BamHI or SalI (New England Biolabs), transcription was performed using the in vitro SP6 mMessage mMachine Kit (Ambion)[34]. The obtained RNA was kept at −80 °C and diluted with nuclease-free water to a concentration of 0.6 μg μl^−1. Precision-bore glass capillary tubes (3.5-inch glass capillaries; Drummond Scientific Co.) were pulled on a vertical puller (P-87 Flaming/Brown micropipette puller, Sutter Instrument Co.), graduated, and placed on a microinjector (Nanoject II Auto-Nanoliter Injector, Drummond Scientific Co.). 50 nl of nuclease-free water alone (control oocytes) or 50 nl of 0.6 μg μl^−1 RNA were injected under stereomicroscopic control. Injected oocytes were incubated for 46–72 h at 18 °C with twice-daily buffer changes before usage in experiments.
# Drug uptake assays were performed as described previously[21],[22],[24],[34]. […] The direction of radio-labeled drug transport is here from the mostly acidic extracellular solution (pH 4.5 or 6.0, as indicated) into the oocyte cytosol (pH ∼ 7.2), which corresponds to the efflux of drug from the acidic digestive vacuole (pH 5.2) into the parasite cytoplasm (pH 7.2). The topology of PfCRT in the oolemma is such that both the N- and C-terminus face the extracellular milieu[3],[22]. In the parasite, the N- and C-terminus face the lumen of the digestive vacuole. CQ uptake kinetics were performed by incubating oocytes in ND96 buffer adjusted to a pH of 4.5, 5.0, 5.5, or 6.0 and supplemented with 50 nM [^3H]CQ and one of 7 different CQ concentrations (10 µM, 50 µM, 100 µM, 200 µM, 300 µM, 400 µM, 500 µM CQ). The reaction was stopped at the 60 min time point, which is in the linear uptake range[22],[34] (Supplementary Fig. 17). […] The radioactivity of each sample was measured using a liquid scintillation analyzer Tri-Carb 4910 TR (PerkinElmer). Oocytes that were injected with water instead of RNA were analyzed in parallel, representing the uptake of a drug by diffusion and/or endogenous permeation pathways. […]
# PfCRT variant E207A = assay: Drug uptake assay, oocytes expressing E207A; settings: for Km: read-out: KM ± SEM
# Procedure: as §1, §2
# (§3) Drug uptake assays were performed as described previously[21],[22],[24],[34]. […] The direction of radio-labeled drug transport is here from the mostly acidic extracellular solution (pH 4.5 or 6.0, as indicated) into the oocyte cytosol (pH ∼ 7.2), which corresponds to the efflux of drug from the acidic digestive vacuole (pH 5.2) into the parasite cytoplasm (pH 7.2). The topology of PfCRT in the oolemma is such that both the N- and C-terminus face the extracellular milieu[3],[22]. In the parasite, the N- and C-terminus face the lumen of the digestive vacuole. […] For determination of the amount of drug uptake for each oocyte, the reaction medium was removed and the oocytes were washed three times with 2 ml of ice-cold ND96 buffer. Each oocyte was individually transferred to a scintillation vial containing 5% sodium dodecyl sulfate (200 μl) for lysis. […] Oocytes that were injected with water instead of RNA were analyzed in parallel, representing the uptake of a drug by diffusion and/or endogenous permeation pathways. The resulting value represents the “background“ level of drug accumulation in oocytes (in-depth discussion in[22]). The specific PfCRT-mediated uptake was determined by subtracting the corresponding background value measured in water-injected oocytes from that of PfCRT-expressing oocytes. In all cases, at least three separate experiments were performed on oocytes from different frogs (biological replicate), and for each condition in an experiment, measurements were made from 10 oocytes per treatment. For pH 5.5, 6.0, and 6.5, ND96 was buffered with 5 mM MES/Tris base.
# PfCRT variant N84A = assay: CQ uptake assay, oocytes expressing N84A
# Procedure: as §1, §2, §3
# [1] = Y177A, 50 µM CQ, 1 h, mean ± SEM
# [2] = pH 4.5, single replicates, Fig 1d left
# [3] = pH 6.0, single replicates, Fig 1d left
# [4] = 50 µM CQ, 1 h, independent samples
# [5] = pH 4.5, individual replicates (Fig 6a)
# [6] = pH 6.0, individual replicates (Fig 6a)
# [7] = transport activity pH 4.5 relative to pH 6.0 (Fig 6a)
# [8] = N84A, 50 µM CQ, 1 h, mean ± SEM
compound,measurement,setting,value
"CCN(CC)CCCC(C)Nc1ccnc2cc(Cl)ccc12 (centres unmarked) [CQ, chloroquine]",Activity at pH 4.5,PfCRT variant Y177A; [1],1.25 ± 0.21 pmol h-1 oocyte-1
same,Activity at pH 6.0,PfCRT variant Y177A; [1],2.94 ± 0.26 pmol h-1 oocyte-1
same,R-value,"PfCRT variant Y177A; Y177A, CQ transport at pH 4.5 / pH 6.0",0.44 ± 0.11
same,Y177A transport activity pH 4.5,PfCRT variant Y177A; [2],0.79 pmol oocyte-1 h-1 and 1.73 pmol oocyte-1 h-1 and 1.60 pmol oocyte-1 h-1 and 0.87 pmol oocyte-1 h-1
same,Y177A transport activity pH 6.0,PfCRT variant Y177A; [3],2.11 pmol oocyte-1 h-1 and 3.29 pmol oocyte-1 h-1 and 2.90 pmol oocyte-1 h-1 and 3.47 pmol oocyte-1 h-1
same,E207A transport activity,"PfCRT variant E207A; 10 µM CQ, pH 4.5, 60 min",0.59 pmol oocyte-1 h-1 and 0.34 pmol oocyte-1 h-1 and 0.50 pmol oocyte-1 h-1
same,E207A transport activity,"PfCRT variant E207A; 10 µM CQ, pH 6.0, 60 min",0.34 pmol oocyte-1 h-1 and 0.28 pmol oocyte-1 h-1 and 0.55 pmol oocyte-1 h-1 and 0.40 pmol oocyte-1 h-1
same,E207A transport activity pH 5.0,PfCRT variant E207A; [4],1.89 pmol oocyte-1 h-1 and 1.63 pmol oocyte-1 h-1
same,E207A transport activity pH 5.5,PfCRT variant E207A; [4],2.56 pmol oocyte-1 h-1 and 1.58 pmol oocyte-1 h-1 and 2.27 pmol oocyte-1 h-1
same,E207A transport activity,"PfCRT variant E207A; 100 µM CQ, pH 4.5, 60 min",4.66 pmol oocyte-1 h-1 and 5.17 pmol oocyte-1 h-1 and 4.25 pmol oocyte-1 h-1 and 5.82 pmol oocyte-1 h-1
same,E207A transport activity,"PfCRT variant E207A; 100 µM CQ, pH 6.0, 60 min",3.91 pmol oocyte-1 h-1 and 5.58 pmol oocyte-1 h-1 and 5.27 pmol oocyte-1 h-1 and 3.70 pmol oocyte-1 h-1 and 4.07 pmol oocyte-1 h-1 and 4.29 pmol oocyte-1 h-1
same,E207A transport activity,"PfCRT variant E207A; 200 µM CQ, pH 4.5, 60 min",7.55 pmol oocyte-1 h-1 and 5.35 pmol oocyte-1 h-1 and 6.95 pmol oocyte-1 h-1 and 5.93 pmol oocyte-1 h-1
same,E207A transport activity,"PfCRT variant E207A; 200 µM CQ, pH 6.0, 60 min",5.60 pmol oocyte-1 h-1 and 6.08 pmol oocyte-1 h-1 and 5.00 pmol oocyte-1 h-1 and 8.09 pmol oocyte-1 h-1 and 6.01 pmol oocyte-1 h-1
same,E207A transport activity,"PfCRT variant E207A; 300 µM CQ, pH 4.5, 60 min",7.51 pmol oocyte-1 h-1 and 7.97 pmol oocyte-1 h-1 and 7.66 pmol oocyte-1 h-1
same,E207A transport activity,"PfCRT variant E207A; 300 µM CQ, pH 6.0, 60 min",7.48 pmol oocyte-1 h-1 and 7.35 pmol oocyte-1 h-1 and 8.15 pmol oocyte-1 h-1 and 7.49 pmol oocyte-1 h-1 and 7.22 pmol oocyte-1 h-1
same,E207A transport activity,"PfCRT variant E207A; 400 µM CQ, pH 4.5, 60 min",9.19 pmol oocyte-1 h-1 and 7.30 pmol oocyte-1 h-1 and 9.06 pmol oocyte-1 h-1
same,E207A transport activity,"PfCRT variant E207A; 400 µM CQ, pH 6.0, 60 min",7.35 pmol oocyte-1 h-1 and 7.71 pmol oocyte-1 h-1 and 9.99 pmol oocyte-1 h-1 and 6.32 pmol oocyte-1 h-1 and 7.81 pmol oocyte-1 h-1
same,E207A transport activity,"PfCRT variant E207A; 500 µM CQ, pH 4.5, 60 min",6.87 pmol oocyte-1 h-1 and 8.11 pmol oocyte-1 h-1 and 8.95 pmol oocyte-1 h-1 and 9.82 pmol oocyte-1 h-1
same,E207A transport activity,"PfCRT variant E207A; 500 µM CQ, pH 6.0, 60 min",7.79 pmol oocyte-1 h-1 and 6.89 pmol oocyte-1 h-1 and 7.81 pmol oocyte-1 h-1 and 10.28 pmol oocyte-1 h-1 and 8.00 pmol oocyte-1 h-1
same,transport activity at pH 6.0 compared with PfCRT^Dd2,"PfCRT variant E207A; E207A, 50 µM CQ",44%
same,Vmax ± SEM,"PfCRT variant E207A; E207A, pH 4.5",11 ± 1 pmol h^−1 oocyte ^−1
same,Km,"PfCRT variant E207A; E207A, pH 4.5",180 ± 30 µM
same,Vmax ± SEM,"PfCRT variant E207A; E207A, pH 6.0",11 ± 1 pmol h^−1 oocyte ^−1
same,Km,"PfCRT variant E207A; E207A, pH 6.0",150 ± 30 µM
same,Activity at pH 6.0,"PfCRT variant E207A; E207A, 50 µM CQ, 1 h, mean ± SEM",2.24 ± 0.15 pmol h-1 oocyte-1
same,R-value,"PfCRT variant E207A; E207A, CQ transport at pH 4.5 / pH 6.0",0.9 and 0.89 ± 0.03
same,E207A transport activity pH 4.5,PfCRT variant E207A; [5],1.64 pmol oocyte-1 h-1 and 1.58 pmol oocyte-1 h-1 and 3.29 pmol oocyte-1 h-1 and 2.17 pmol oocyte-1 h-1 and 2.03 pmol oocyte-1 h-1 and 1.48 pmol oocyte-1 h-1 and 2.30 pmol oocyte-1 h-1 and 1.60 pmol oocyte-1 h-1
same,E207A transport activity pH 4.5,"PfCRT variant E207A; pH 4.5, individual replicates, Fig 6b",1.64 pmol oocyte-1 h-1 and 1.58 pmol oocyte-1 h-1 and 3.29 pmol oocyte-1 h-1 and 2.17 pmol oocyte-1 h-1 and 2.03 pmol oocyte-1 h-1 and 1.48 pmol oocyte-1 h-1 and 2.30 pmol oocyte-1 h-1 and 1.60 pmol oocyte-1 h-1
same,E207A transport activity pH 4.5,PfCRT variant E207A; [2],1.64 pmol oocyte-1 h-1 and 1.58 pmol oocyte-1 h-1 and 3.29 pmol oocyte-1 h-1 and 2.17 pmol oocyte-1 h-1 and 2.03 pmol oocyte-1 h-1 and 1.48 pmol oocyte-1 h-1 and 2.30 pmol oocyte-1 h-1 and 1.60 pmol oocyte-1 h-1
same,E207A R-value,"PfCRT variant E207A; pH 4.5 vs pH 6.0, Fig 1d left",0.81 and 1.04 and 1.03 and 0.85 and 0.93 and 0.99 and 0.74
same,E207A transport activity pH 6.0,PfCRT variant E207A; [6],2.02 pmol oocyte-1 h-1 and 1.94 pmol oocyte-1 h-1 and 3.16 pmol oocyte-1 h-1 and 2.11 pmol oocyte-1 h-1 and 2.38 pmol oocyte-1 h-1 and 1.75 pmol oocyte-1 h-1 and 2.47 pmol oocyte-1 h-1 and 1.62 pmol oocyte-1 h-1 and 2.39 pmol oocyte-1 h-1
same,E207A transport activity pH 6.0,"PfCRT variant E207A; pH 6.0, individual replicates, Fig 6b",2.02 pmol oocyte-1 h-1 and 1.94 pmol oocyte-1 h-1 and 3.16 pmol oocyte-1 h-1 and 2.11 pmol oocyte-1 h-1 and 2.38 pmol oocyte-1 h-1 and 1.75 pmol oocyte-1 h-1 and 2.47 pmol oocyte-1 h-1 and 1.62 pmol oocyte-1 h-1 and 2.39 pmol oocyte-1 h-1
same,E207A transport activity pH 6.0,PfCRT variant E207A; [3],2.02 pmol oocyte-1 h-1 and 1.94 pmol oocyte-1 h-1 and 3.16 pmol oocyte-1 h-1 and 2.11 pmol oocyte-1 h-1 and 2.38 pmol oocyte-1 h-1 and 1.75 pmol oocyte-1 h-1 and 2.47 pmol oocyte-1 h-1 and 1.62 pmol oocyte-1 h-1 and 2.39 pmol oocyte-1 h-1
same,E207A R-value,PfCRT variant E207A; ratio of activity pH 4.5 / pH 6.0,0.81 and 1.04 and 1.03 and 0.85 and 0.93 and 0.99 and 0.74
same,E207A R-value,PfCRT variant E207A; [7],0.81 and 1.04 and 1.03 and 0.85 and 0.93 and 0.99 and 0.74
same,Activity at pH 4.5,PfCRT variant N84A; [8],1.41 ± 0.23 pmol h-1 oocyte-1
same,Activity at pH 6.0,PfCRT variant N84A; [8],3.24 ± 0.32 pmol h-1 oocyte-1
same,R-value,"PfCRT variant N84A; N84A, CQ transport at pH 4.5 / pH 6.0",0.42 ± 0.04 and 0.42
same,N84A transport activity pH 4.5,PfCRT variant N84A; [5],1.45 pmol oocyte-1 h-1 and 0.73 pmol oocyte-1 h-1 and 1.46 pmol oocyte-1 h-1 and 2.00 pmol oocyte-1 h-1
same,N84A transport activity pH 6.0,PfCRT variant N84A; [6],3.16 pmol oocyte-1 h-1 and 3.18 pmol oocyte-1 h-1 and 4.19 pmol oocyte-1 h-1
same,N84A R-value,PfCRT variant N84A; [7],0.46 and 0.30 and 0.48

# Source: publication PMC10349806 (Nature Communications, 2023)
